Patent publication US7439366B2, “Phenacylamine derivatives, process for their production and pesticides containing them” (Ishihara Sangyo Kaisha Ltd., priority 2000, dated 2008)

The molecules below were run on southern root-knot nematode (Meloidgyne incognita) (assay: Test on southern root-knot nematode (soil treatment, tomato seedling, root knot index)). Conditions: 7 ml of 1600 ppm chemical solution mixed into 300 ml contaminated soil; tomato seedling in 2-leaf stage; three to four weeks after transplantation.
Format: in vivo
Parameters: key: 0: No knot was formed; 1: Knots were formed to a slight degree; 2: Knots were formed to a moderate degree; 3: Knots were formed to a heavy degree; 4: Knots were formed to the heaviest degree
Description: TEST EXAMPLE 1 Test on Southern Root-knot Nematode (Meloidgyne incognita) To 300 ml of the soil contaminated by southern root-knot nematode, 7 ml of a chemical solution having the concentration of the compound of the present invention adjusted to be 1600 ppm, was poured, followed by mixing so that the compound was uniformly dispersed. The treated soil was put into a pot (diameter: 9 cm, height: 8 cm), and then a tomato seedling in 2-leaf stage was transplanted and placed in a greenhouse. After three to four weeks from the transplantation of the tomato, the root knot index was determined based on the following standards. [table]
`CC(C)(NC(=O)c1ccccc1C(F)(F)F)C(=O)c1ccc(OC(F)(F)C(F)F)cc1` [1-178] showed a root knot index of 1.
Work on `Cc1ccc(C(=O)NC(C)(C)C(=O)c2ccccc2)cc1` [1-19] yielded a root knot index of 1.
With `CC(C)(NC(=O)c1ccccc1F)C(=O)c1ccc(C(F)(F)F)cc1` [1-167] the root knot index was 1.
With `CC(C)(NC(=O)c1ccccc1Br)C(=O)c1ccccc1` [1-17] the root knot index was 1.
`CC(C)(NC(=O)c1ccccc1F)C(=O)c1ccc(OCC(F)(F)F)cc1` [1-173] was tested, and the root knot index was 1.
For `CC(C)(NC(=O)c1ccccc1F)C(=O)c1ccc(OCC(F)(F)C(F)(F)F)cc1` [1-179], the root knot index was 1.
In the case of `CC(C)(NC(=O)c1c(F)cccc1F)C(=O)c1ccc(OC(F)(F)C(F)F)cc1` [1-177], the root knot index is reported as 1.
For `CC(C)(NC(=O)c1c(F)cccc1F)C(=O)c1cccc(F)c1` [1-126], the root knot index was 1.
With `Cc1ccc(C(=O)C(C)(C)NC(=O)c2c(F)cccc2F)cc1` [1-163] the root knot index was 1.
`CC(C)(NC(=O)c1c(F)cccc1F)C(=O)c1ccc(S(C)(=O)=O)cc1` [1-213] was tested, and the root knot index was 1.
`CCc1ccc(C(=O)C(C)(C)NC(=O)c2c(F)cccc2F)cc1` [1-164] was tested, and the root knot index was 1.
In the case of `CC(C)(NC(=O)c1ccc(F)cc1F)C(=O)c1ccccc1` [1-125], the root knot index is reported as 1.
`CC(C)(NC(=O)c1cccnc1Cl)C(=O)c1ccccc1` [2-2] gave a root knot index of 1.
With `CC(C)(NC(=O)c1c(F)cccc1F)C(=O)c1ccc(F)c(F)c1` [1-133] the root knot index was 1.
For `COc1ccc(C(=O)C(C)(C)NC(=O)c2ccccc2Cl)cc1` [1-93], the root knot index was 1.
`CC(C)(NC(=O)c1ccccc1Cl)C(=O)c1ccc(OC(F)F)cc1` [1-95] was tested, and the root knot index was 1.
`Cc1ccccc1C(=O)NC(C)(C)C(=O)c1ccc(Cl)cc1` [1-65] showed a root knot index of 1.
Work on `CCc1ccc(C(=O)C(C)(C)NC(=O)c2ccccc2Cl)cc1` [1-83] yielded a root knot index of 1.
Molecule `CC(C)(NC(=O)c1c(F)cccc1F)C(=O)c1ccc(F)cc1` [1-128] has a root knot index of 1.
Work on `CC(C)(NC(=O)c1ccccc1C(F)(F)F)C(=O)c1ccc(I)cc1` [1-161] yielded a root knot index of 1.
`CC(C)(NC(=O)c1cccc(F)c1F)C(=O)c1ccc(Cl)cc1` [1-139] showed a root knot index of 1.
For `CC(C)(NC(=O)c1ccccc1Cl)C(=O)c1ccccc1` [Compound No. 1-5], the root knot index was 1.
Work on `CC(C)(NC(=O)c1ccccc1Cl)C(=O)c1ccc(F)c(F)c1` [1-131] yielded a root knot index of 1.
For `CC(C)(NC(=O)c1cc(F)ccc1F)C(=O)c1ccc(Cl)cc1` [1-141], the root knot index was 1.
`CC(C)(NC(=O)c1ccccc1C(F)(F)F)C(=O)c1ccc(Cl)cc1` [1-70] gave a root knot index of 1.
Molecule `CC(C)(NC(=O)c1cccc(F)c1F)C(=O)c1ccc(F)cc1` [1-127] has a root knot index of 1.
With `CC(C)(NC(=O)c1c(F)cccc1F)C(=O)c1ccc(OC(F)F)cc1` [1-172] the root knot index was 1.
`CC(C)(NC(=O)c1ccccc1)C(=O)c1ccc(Cl)cc1` [1-49] showed a root knot index of 1.
`CC(C)(NC(=O)c1ccccc1Cl)C(=O)c1ccc(Br)cc1` [1-155] gave a root knot index of 1.
In the case of `CN(C(=O)c1ccccc1C(F)(F)F)C(C)(C)C(=O)c1ccccc1` [Compound No. 1-27, N-methyl-N-[(1,1-dimethyl)phenacyl]-2-trifluoromethylbenzamide], the root knot index is reported as 1.
`CC(C)(NC(=O)c1c(F)cccc1F)C(=O)c1ccc(Br)cc1` [1-157] was tested, and the root knot index was 1.
`CC(C)(NC(=O)c1c(F)cccc1F)C(=O)c1ccc(I)cc1` [1-162] gave a root knot index of 1.
For `CC(C)(NC(=O)c1ccccc1Cl)C(=O)c1ccc(OC(F)(F)C(F)F)cc1` [1-176], the root knot index was 1.
Work on `CC(C)(NC(=O)c1ccccc1[N+](=O)[O-])C(=O)c1ccccc1` [1-38] yielded a root knot index of 1.
In the case of `CC(C)(NC(=O)c1c(F)cccc1Cl)C(=O)c1ccc(Cl)cc1` [1-142], the root knot index is reported as 1.
Molecule `CC(C)(NC(=O)c1ccccc1Br)C(=O)c1ccc(Cl)cc1` [1-64] has a root knot index of 1.
In the case of `CC(C)(NC(=O)c1ccccc1F)C(=O)c1ccc(I)cc1` [1-160], the root knot index is reported as 1.
Work on `CC(C)(NC(=O)c1ccccc1F)C(=O)c1ccccc1` [1-1] yielded a root knot index of 1.
Work on `CC(C)(NC(=O)c1ccccc1F)C(=O)c1ccc(OC(F)(F)C(F)F)cc1` [1-175] yielded a root knot index of 1.
With `CC(C)(NC(=O)c1ccccc1F)C(=O)c1ccc(OC(F)F)cc1` [1-171] the root knot index was 1.
In the case of `CC(C)(NC(=O)c1c(F)cccc1F)C(=O)c1ccc(OCC(F)(F)C(F)(F)F)cc1` [1-180], the root knot index is reported as 1.
`CCC(C)(NC(=O)c1ccccc1F)C(=O)c1ccc(Cl)cc1` (racemic) [1-51] was tested, and the root knot index was 1.
With `CC(C)(NC(=O)c1ccc(F)cc1Cl)C(=O)c1ccc(Cl)cc1` [1-138] the root knot index was 1.
For `CC(C)(NC(=O)c1cccc(F)c1F)C(=O)c1ccc(Br)cc1` [1-159], the root knot index was 1.
With `CCOc1ccc(C(=O)C(C)(C)NC(=O)c2c(F)cccc2F)cc1` [1-169] the root knot index was 1.
`CSc1ccccc1C(=O)NC(C)(C)C(=O)c1ccccc1` [1-31] was tested, and the root knot index was 1.
In the case of `CC(C)(NC(=O)c1c(F)cccc1F)C(=O)c1ccc(OCC(F)(F)F)cc1` [1-174], the root knot index is reported as 1.
Molecule `CC(C)(NC(=O)c1ccccc1F)C(=O)c1ccc(F)c(F)c1` [1-130] has a root knot index of 1.
`CSc1ccc(C(=O)C(C)(C)NC(=O)c2c(F)cccc2F)cc1` [1-212] was tested, and the root knot index was 1.
`Cc1ccccc1C(=O)NC(C)(C)C(=O)c1ccccc1` [1-18] gave a root knot index of 1.
With `CC(C)(NC(=O)c1ccccc1C(F)(F)F)C(=O)c1ccc(F)c(F)c1` [1-132] the root knot index was 1.
In the case of `CC(C)(NC(=O)c1c(F)cccc1F)C(=O)c1ccccc1Cl` [1-134], the root knot index is reported as 1.
`CC(C)(NC(=O)c1ccccc1[N+](=O)[O-])C(=O)c1ccc(Cl)cc1` [1-136] gave a root knot index of 1.
Work on `CC(C)(NC(=O)c1ccccc1Cl)C(=O)c1ccc(Cl)cc1` [Compound No. 1-54, 2-chloro-N-[(4′-chloro-1,1-dimethyl)phenacyl]benzamide] yielded a root knot index of 1.
`CC(C)(NC(=O)c1c(F)cccc1F)C(=O)c1ccc(Cl)c(Cl)c1` [1-147] was tested, and the root knot index was 1.
Molecule `CCC(C)(NC(=O)c1c(F)cccc1F)C(=O)c1ccc(Cl)cc1` (racemic) [1-151] has a root knot index of 1.
Molecule `CCc1ccc(C(=O)C(C)(C)NC(=O)c2cc(Cl)cc(Cl)c2)cc1` [Compound No. 1-84, 3,5-dichloro-N-[(4′-ethyl-1,1-dimethyl)phenacyl]benzamide] has a root knot index of 1.
`CC(C)(NC(=O)c1ccc(C(F)(F)F)cc1)C(=O)c1ccccc1` [1-28] showed a root knot index of 1.
`CC(C)(NC(=O)c1ccccc1F)C(=O)c1ccc(Br)cc1` [1-158] was tested, and the root knot index was 1.
In the case of `CC(C)(NC(=O)c1ccccc1C(F)(F)F)C(=O)c1ccccc1` [1-24], the root knot index is reported as 1.
With `CC(C)(NC(=O)c1c(F)cccc1F)C(=O)c1ccccc1` [1-4] the root knot index was 1.
`CC(C)(NC(=O)c1c(F)cccc1F)C(=O)c1cccc(Cl)c1` [1-135] gave a root knot index of 1.
Work on `COc1ccc(C(=O)C(C)(C)NC(=O)c2c(F)cccc2F)cc1` [1-168] yielded a root knot index of 1.
Molecule `CC(C)(NC(=O)c1c(F)cccc1F)C(=O)c1ccc(Oc2ccc(C(F)(F)F)cn2)cc1` [1-211] has a root knot index of 1.
`CC(C)(NC(=O)c1ccccc1F)C(=O)c1ccc(Cl)cc1` [1-50] gave a root knot index of 1.
With `CC(C)(NC(=O)c1c(F)cccc1F)C(=O)c1ccc(Cl)cc1Cl` [1-143] the root knot index was 1.
Work on `CC(C)(NC(=O)c1ccc(F)cc1F)C(=O)c1ccc(Cl)cc1` [1-140] yielded a root knot index of 1.
Work on `CC(C)(NC(=O)c1ccccc1F)C(=O)c1ccc(Cl)c(Cl)c1` [1-77] yielded a root knot index of 1.
With `CC(C)(NC(=O)c1c(F)cccc1F)C(=O)c1ccc(C(F)(F)F)cc1` [1-166] the root knot index was 1.
